In patent US3994890A, “1-Aminoalkyl, 3-phenyl indazoles” (Chugai Seiyaku Kabushiki Kaisha, priority 1974, dated 1976):
Where a name gives a salt, the structure may show the parent alone. Read-outs that look alike come from different tables or passages of the source.

Experiments:
[1] = tested on: hexobarbital-treated ddY Strain male mice; experiment: Barbiturate potentiation (duration of loss of righting reflex due to hexobarbital); type: in vivo, mouse (ddY Strain); conditions: 0.5 h, read-out: Barbiturate potentiation (ratio with control groups)
Experimental: ddY Strain male mice (4 - 5 weeks old, body weight 23 - 28 g) in groups of 5 mice each were orally treated with 100 mg/kg of samples and 30 minutes after the oral administration the mice were intraperitoneally treated with 100 mg/kg of hexobarbital. Duration of loss of righting reflex due to hexobarbital was determined and barbiturate potentiation ratios with control groups were calculated. Imipramine, desipramine and diazepam were used as control drugs.

[2] = tested on: Wistar-Imamichi strain rats; experiment: Subacute toxicity (30 days; oral administration), rat; type: in vivo, rat (Wistar-Imamichi strain)
Description: (§1) ddY Strain mice and Wistar-Imamichi strain rats were used to inspect acute toxicity and subacute toxicity (30 days; oral administration) of a compound of the formula [I].

[3] = Acute toxicity, rat; conditions: in vivo, po
Description: as §1

[4] = tested on: ddY Strain mice; experiment: Acute toxicity, mouse; type: in vivo; conditions: p.o.
Description: as §1

[5] = Acute toxicity, mouse; type: in vivo; conditions: in vivo, po
Description: as §1

[6] = tested on: hexobarbital-treated ddY Strain male mice; experiment: Barbiturate potentiation (duration of loss of righting reflex due to hexobarbital); type: in vivo, mouse (ddY Strain); conditions: Mus musculus, po, 0.5 h, read-out: Barbiturate potentiation (ratio with control groups)
[7] = mouse, 100 mg/kg oral, 30 minutes before 100 mg/kg i.p. hexobarbital, loss of righting reflex duration
[8] = 30 days oral, at a dose of 50 mg/kg

Row | Compound | response vs control in vivo at 100 mg/kg [1, 7] [%] | also measured
1 | CCN(CC)CCn1nc(-c2ccccc2)c2ccccc21 [Example 6, 1-diethylaminoethyl-3-phenylindazole hydrochloride] | 290 | 
2 | CN(C)CCCN1c2ccccc2CCc2ccccc21 [imipramine] |  | Subacute toxicity: blood urine nitrogen [2, 8]: reduced; Subacute toxicity: fatality [2, 8]: not fatal; Subacute toxicity: hemoglobin [2, 8]: reduced; response vs control in vivo at 100 mg/kg ([1]; Mus musculus, po): 130%
3 | Cc1ccc2c(c1)c(-c1ccccc1)nn2CN1CCCC1 [Example 20, 1-pyrrolidinomethyl-3-phenyl-5-methylindazole hydrochloride] | 160 | 
4 | Cc1ccc2c(c1)c(-c1ccccc1)nn2CCCN1CCN(C)CC1 [Example 17, 1-N-methylpiperazinopropyl-3-phenyl-5-methylindazole hydrochloride] | 100 | 
5 | Clc1ccc2c(c1)c(-c1ccccc1)nn2CN1CCOCC1 [Example 19, 1-morpholinomethyl-3-phenyl-5-chloroindazole] | 120 | 
6 | Cc1ccc2c(c1)c(-c1ccccc1)nn2CCN(C)C [Example 3, 1-dimethylaminoethyl-3-phenyl-5-methylindazole hydrochloride] | 150 | 
7 | CNCCCN1c2ccccc2CCc2ccccc21 [desipramine, reference compound] |  | response vs control in vivo at 100 mg/kg ([1]; Mus musculus, po): 150%
8 | CNCCCn1nc(-c2ccccc2)c2cc(C)ccc21 [Example 29, 1-N-monomethylaminopropyl-3-phenyl-5-methylindazole hydrochloride] | 170 | 
9 | CCN(CC)CCn1nc(-c2ccccc2)c2cc(Cl)ccc21 [Example 4, 1-diethylaminoethyl-3-phenyl-5-chloroindazole hydrochloride] | 120 | 
10 | CN(C)CCn1nc(-c2ccccc2)c2cc(Cl)ccc21 [Example 2, 1-dimethylaminoethyl-3-phenyl-5-chloroindazole hydrochloride] | 150 | 
11 | O=C1c2ccccc2C(=O)N1CCCn1nc(-c2ccccc2)c2cc(Cl)ccc21 [Example 25, 1-phthalimidopropyl-3-phenyl-5-chloroindazole] | 110 | 
12 | Cc1ccc2c(c1)c(-c1ccccc1)nn2CCCN1CCOCC1 [Example 15, 1-morpholinopropyl-3-phenyl-5-methylindazole hydrochloride] | 140 | 
13 | Cc1ccc2c(c1)c(-c1ccccc1)nn2CCCN(C)C [Example 10, 1-dimethylaminopropyl-3-phenyl-5-methylindazole] | 100 | Subacute toxicity: fatality ([2]; 30 days oral, at a dose of 100 mg/kg): not fatal; Subacute toxicity: symptoms ([2]; in vivo, po, 100 mg/kg): no abnormal symptom; LD50 [3]: 3000 to 5000 mg/kg; LD50 [4]: 660 mg/kg; LD50 [5]: 580 mg/kg
14 | CN1C(=O)CN=C(c2ccccc2)c2cc(Cl)ccc21 [diazepam] |  | response vs control in vivo at 5 mg/kg [6]: 230%
15 | c1ccc(-c2nn(CCCN3CCCCC3)c3ccccc23)cc1 [Example 11, 1-piperidinopropyl-3-phenylindazole hydrochloride] | 130 | 
16 | c1ccc(-c2nn(CN3CCOCC3)c3ccccc23)cc1 [Example 23, 1-morpholinomethyl-3-phenylindazole] | 130 | 
17 | CN(C)CCn1nc(-c2ccccc2)c2ccccc21 [Example 1, 1-dimethylaminoethyl-3-phenylindazole hydrochloride] | 300 | 
18 | CN(C)CCCn1nc(-c2ccccc2)c2ccccc21 [Example 7, 1-dimethylaminopropyl-3-phenylindazole hydrochloride] | 190 | 
19 | Cc1ccc2c(c1)c(-c1ccccc1)nn2CCCN [Example 34, 1-aminopropyl-3-phenyl-5-methylindazole] | 250 | 
20 | Clc1ccc2c(c1)c(-c1ccccc1)nn2CCN1CCOCC1 [Example 14, 1-morpholinoethyl-3-phenyl-5-chloroindazole hydrochloride] | 170 | 
21 | Cc1ccc2c(c1)c(-c1ccccc1)nn2CCCN1CCCCC1 [Example 12, 1-piperidinopropyl-3-phenyl-5-methylindazole hydrochloride] | 100 | 
22 | CN(C)CCCn1nc(-c2ccccc2)c2cc(Cl)ccc21 [Example 8, 1-dimethylaminopropyl-3-phenyl-5-chloroindazole hydrochloride] | 130 | 
